# According to US8536168B2 (Novartis AG, priority 2007, dated 2013):
# Like-named read-outs stand apart in the source and are kept apart here.
# Experiments:
# Gli-luciferase activity = experiment: Reporter gene assay (RGA) in TMHh12 cells, antagonism of Gli-luciferase activity in the presence of a Smo agonist; assay type: cell-based
# Method: Activity of the compounds was evaluated using a reporter gene assay (RGA) in TMHh12 cells.
# [1] = target: human Smoothened receptor (Homo sapiens, UniProt Q99835); experiment: Smo binding assay, displacement of radio-labeled smoothened agonist, filter binding format (human); details: displacement of small molecule agonist of Smoothened, read-out: Human Smo bdg., IC50
# Sequence of human Smoothened receptor (Q99835 28-787): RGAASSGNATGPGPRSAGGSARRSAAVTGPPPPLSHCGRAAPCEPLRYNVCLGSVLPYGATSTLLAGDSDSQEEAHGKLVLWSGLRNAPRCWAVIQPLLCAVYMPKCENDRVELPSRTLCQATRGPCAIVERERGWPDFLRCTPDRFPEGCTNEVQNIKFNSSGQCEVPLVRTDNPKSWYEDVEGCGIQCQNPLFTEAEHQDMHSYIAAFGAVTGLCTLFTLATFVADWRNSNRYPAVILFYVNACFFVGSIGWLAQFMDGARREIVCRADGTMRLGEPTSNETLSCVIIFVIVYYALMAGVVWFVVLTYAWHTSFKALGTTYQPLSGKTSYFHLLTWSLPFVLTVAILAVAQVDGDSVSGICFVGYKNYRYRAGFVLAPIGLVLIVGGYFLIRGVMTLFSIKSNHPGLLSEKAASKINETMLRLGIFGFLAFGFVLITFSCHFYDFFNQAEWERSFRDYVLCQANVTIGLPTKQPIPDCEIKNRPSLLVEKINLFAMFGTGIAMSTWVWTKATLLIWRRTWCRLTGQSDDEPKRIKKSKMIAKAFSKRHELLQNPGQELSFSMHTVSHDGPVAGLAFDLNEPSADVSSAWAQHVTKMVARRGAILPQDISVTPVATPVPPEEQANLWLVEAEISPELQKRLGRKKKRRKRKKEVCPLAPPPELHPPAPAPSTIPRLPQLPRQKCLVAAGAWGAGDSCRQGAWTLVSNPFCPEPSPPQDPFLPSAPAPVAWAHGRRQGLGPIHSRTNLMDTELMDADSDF
# Description: A Smo binding assay was developed using radio-labeled smoothened agonist for compound competition. Table 9 lists the IC50 for displacement of a small molecule agonist of Smoothened determined in a filter binding format for the mouse and human Smoothened receptor.
# [2] = target: mouse Smoothened receptor (Mus musculus, UniProt P56726); experiment: Smo binding assay, displacement of radio-labeled smoothened agonist, filter binding format (mouse); details: displacement of small molecule agonist of Smoothened, read-out: Mouse Smo bdg., IC50
# Sequence of mouse Smoothened receptor (P56726 33-793): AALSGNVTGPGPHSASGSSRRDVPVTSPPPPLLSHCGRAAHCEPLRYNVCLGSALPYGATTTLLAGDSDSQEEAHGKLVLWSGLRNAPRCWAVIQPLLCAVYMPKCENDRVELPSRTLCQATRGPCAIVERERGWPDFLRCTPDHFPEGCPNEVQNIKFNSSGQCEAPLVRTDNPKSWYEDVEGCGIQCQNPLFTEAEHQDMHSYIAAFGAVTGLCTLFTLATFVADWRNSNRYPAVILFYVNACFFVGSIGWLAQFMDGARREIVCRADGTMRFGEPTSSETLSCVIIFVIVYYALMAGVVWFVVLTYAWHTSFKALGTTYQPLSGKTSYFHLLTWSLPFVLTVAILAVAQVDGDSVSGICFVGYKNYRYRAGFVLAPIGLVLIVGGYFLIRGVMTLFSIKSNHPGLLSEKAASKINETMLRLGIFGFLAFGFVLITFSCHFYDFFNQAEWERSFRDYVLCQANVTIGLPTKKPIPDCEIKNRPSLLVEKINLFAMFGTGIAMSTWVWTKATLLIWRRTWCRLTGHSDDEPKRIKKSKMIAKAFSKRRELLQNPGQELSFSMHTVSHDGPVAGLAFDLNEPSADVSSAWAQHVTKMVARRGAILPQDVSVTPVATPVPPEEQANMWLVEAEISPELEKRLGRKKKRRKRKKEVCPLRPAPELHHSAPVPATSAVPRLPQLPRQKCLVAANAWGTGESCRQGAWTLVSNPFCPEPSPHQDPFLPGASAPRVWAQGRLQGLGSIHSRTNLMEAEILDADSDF
# Description: A Smo binding assay was developed using radio-labeled smoothened agonist for compound competition.
# [3] = 25 nM small molecule Smo agonist, read-out: RGA (25 nM Smo agonist) IC50
# [4] = read-out: RGA (1 nM Smo agonist) IC50, 1 nM small molecule Smo agonist
IC50 (Gli-luciferase activity; [3]),IC50 (Gli-luciferase activity; [4]),IC50 [1],IC50 [2],SMILES
1 to 10 µM,0.1 to 1 µM,0.1 to 1 µM,0.1 to 1 µM,N#Cc1ccc(N2CCC(c3cn(Cc4ccccc4)c4ccccc34)CC2)nc1 [Example 100]
10 to 40 µM,0.1 to 1 µM,0.1 to 1 µM,0.1 to 1 µM,O=C(c1cccc(F)c1)N1CCC(c2cn(Cc3ccc(F)cc3)c3ccccc23)CC1 [Example 101]
,0.1 to 1 µM,0.1 to 1 µM,0.1 to 1 µM,N#Cc1ccc(C(=O)N2CCC(c3cn(Cc4ccc(F)cc4)c4ccccc34)CC2)cc1 [Example 102]
1 to 10 µM,1 to 10 µM,1 to 10 µM,1 to 10 µM,N#Cc1cccc(C(=O)N2CCC(c3cn(Cc4ccccc4)c4ccccc34)CC2)c1 [Example 103]
10 to 40 µM,1 to 10 µM,1 to 10 µM,1 to 10 µM,O=C(c1ccc(C(F)(F)F)cc1)N1CCC(c2cn(Cc3ccc(F)cc3)c3ccccc23)CC1 [Example 104]
10 to 40 µM,1 to 10 µM,1 to 10 µM,1 to 10 µM,O=C(c1ccc(C(F)(F)F)cc1)N1CCC(c2cn(Cc3ccccc3)c3ccccc23)CC1 [Example 105]
1 to 10 µM,0.1 to 1 µM,1 to 10 µM,1 to 10 µM,c1ccc(Cc2nnc(N3CCN(c4ccccc4)CC3)c3ccccc23)cc1 [Example 106]
0.1 to 1 µM,< 0.1 µM,0.1 to 1 µM,0.1 to 1 µM,CP(C)(=O)c1ccc(N2CCN(c3nnc(Cc4ccccc4)c4ccccc34)CC2)nc1 [Example 107]
1 to 10 µM,0.1 to 1 µM,0.1 to 1 µM,0.1 to 1 µM,O=C1CN(c2nnc(Cc3ccccc3)c3ccccc23)CCN1c1ccccc1 [Example 108]
0.1 to 1 µM,< 0.1 µM,< 0.1 µM,< 0.1 µM,OC(c1ccc(N2CCN(c3nnc(Cc4ccccc4)c4ccccc34)CC2)nc1)C(F)(F)F (stereo not drawn) [Example 109]
< 0.1 µM,< 0.1 µM,< 0.1 µM,< 0.1 µM,OC(c1ccc(N2CCN(c3nnc(Cc4ccccc4)c4ccccc34)CC2)nc1)(C(F)(F)F)C(F)(F)F [Example 110]
0.1 to 1 µM,< 0.1 µM,0.1 to 1 µM,< 0.1 µM,OC1(c2ccc(N3CCN(c4nnc(Cc5ccccc5)c5ccccc45)CC3)nc2)COC1 [Example 111]
0.1 to 1 µM,< 0.1 µM,0.1 to 1 µM,< 0.1 µM,FC(F)(F)c1c[nH]c(C2CCN(c3nnc(Cc4ccccc4)c4ccccc34)CC2)n1 [Example 112]
1 to 10 µM,0.1 to 1 µM,0.1 to 1 µM,0.1 to 1 µM,c1ccc(Cc2nnc(N3CCC(c4c[nH]c5ccccc45)CC3)c3ccccc23)cc1 [Example 113]
0.1 to 1 µM,< 0.1 µM,< 0.1 µM,< 0.1 µM,c1ccc(Cc2nnc(N3CCC(c4nc5ccccc5[nH]4)CC3)c3ccccc23)cc1 [Example 114]
1 to 10 µM,1 to 10 µM,1 to 10 µM,1 to 10 µM,COC(=O)c1ccc(C2CCN(c3nnc(Cc4ccccc4)c4ccccc34)CC2)cc1 [Example 115]
1 to 10 µM,1 to 10 µM,1 to 10 µM,1 to 10 µM,N#Cc1ccc(C2CCN(c3nnc(Cc4ccccc4)c4ccccc34)CC2)cc1 [Example 116]
0.1 to 1 µM,< 0.1 µM,< 0.1 µM,< 0.1 µM,C[C@H]1CN(c2ccc(C#N)cn2)CCN1c1nnc(Cc2ccccc2)c2ccccc12 [Example 117]
1 to 10 µM,0.1 to 1 µM,0.1 to 1 µM,0.1 to 1 µM,C[C@@H]1CN(c2ccc(C#N)cn2)CCN1c1nnc(Cc2ccccc2)c2ccccc12 [Example 118]
1 to 10 µM,0.1 to 1 µM,0.1 to 1 µM,0.1 to 1 µM,C[C@@H]1CN(c2nnc(Cc3ccccc3)c3ccccc23)[C@@H](C)CN1c1ccc(C#N)cn1 [Example 119]
< 0.1 µM,< 0.1 µM,< 0.1 µM,< 0.1 µM,"CC(C)(N)c1ccc(N2CCN(c3nnc(Cc4ccccc4)c4ccccc34)CC2)nc1 [Example 120, 2-(6-(4-(4-Benzylphthalazin-1-yl)piperazin-1-yl)pyridin-3-yl)propan-2-amine]"
< 0.1 µM,< 0.1 µM,< 0.1 µM,< 0.1 µM,"COCC(=O)NC(C)(C)c1ccc(N2CCN(c3nnc(Cc4ccccc4)c4ccccc34)CC2)nc1 [Example 121, N-(2-(6-(4-(4-Benzylphthalazin-1-yl)piperazin-1-yl)pyridin-3-yl)propan-2-yl)-2-methoxyacetamide]"

IC50 (Gli-luciferase activity; [3]),IC50 (Gli-luciferase activity; [4]),IC50 [1],IC50 [2],SMILES
0.1 to 1 µM,< 0.1 µM,0.1 to 1 µM,< 0.1 µM,COCCC(=O)NC(C)(C)c1ccc(N2CCN(c3nnc(Cc4ccccc4)c4ccccc34)CC2)nc1 [Example 122]
0.1 to 1 µM,< 0.1 µM,< 0.1 µM,< 0.1 µM,CC(C)(NC(=O)OCc1ccccc1)c1ccc(N2CCN(c3nnc(Cc4ccccc4)c4ccccc34)CC2)nc1 [Example 123]
1 to 10 µM,< 0.1 µM,0.1 to 1 µM,0.1 to 1 µM,CC(C)(O)c1ccc(C2CCN(c3nnc(Cc4ccccc4)c4ccccc34)CC2)cc1 [Example 124]
1 to 10 µM,0.1 to 1 µM,1 to 10 µM,0.1 to 1 µM,"NCc1ccc(C2CCN(c3nnc(Cc4ccccc4)c4ccccc34)CC2)cc1 [Example 125, 4-[1-(4-Benzyl-phthalazine-1-yl)-piperidine-4-yl]-benzylamine]"
1 to 10 µM,0.1 to 1 µM,1 to 10 µM,0.1 to 1 µM,CC(=O)Nc1ccc(C2CCN(c3nnc(Cc4ccccc4)c4ccccc34)CC2)cc1 [Example 129]
1 to 10 µM,0.1 to 1 µM,1 to 10 µM,1 to 10 µM,Cc1nc(N2CCN(c3nnc(Cc4ccccc4)c4ccccc34)CC2)ccc1C#N [Example 130]
0.1 to 1 µM,0.1 to 1 µM,< 0.1 µM,< 0.1 µM,O=C1CCCN1c1ccc(N2CCN(c3nnc(Cc4ccccc4)c4ccccc34)CC2)nc1 [Example 131]
0.1 to 1 µM,< 0.1 µM,< 0.1 µM,< 0.1 µM,NS(=O)(=O)c1ccc(N2CCN(c3nnc(Cc4ccccc4)c4ccccc34)CC2)nc1 [Example 132]
0.1 to 1 µM,< 0.1 µM,0.1 to 1 µM,0.1 to 1 µM,O=S(=O)(c1ccc(N2CCN(c3nnc(Cc4ccccc4)c4ccccc34)CC2)nc1)N1CCCC1 [Example 133]
< 0.1 µM,< 0.1 µM,< 0.1 µM,< 0.1 µM,CC(=O)c1ccc(N2CCN(c3nnc(Cc4ccccc4)c4ccccc34)CC2)nc1 [Example 134]
0.1 to 1 µM,< 0.1 µM,< 0.1 µM,< 0.1 µM,OC1(c2ccc(N3CCN(c4nnc(Cc5ccccc5)c5ccccc45)CC3)nc2)CC1 [Example 135]
0.1 to 1 µM,< 0.1 µM,< 0.1 µM,< 0.1 µM,COC(=O)c1cnc(N2CCN(c3nnc(Cc4ccccc4)c4ccccc34)CC2)cc1C(F)(F)F [Example 136]
< 0.1 µM,< 0.1 µM,< 0.1 µM,< 0.1 µM,CCOC(=O)c1cnc(N2CCN(c3nnc(Cc4ccccc4)c4ccccc34)CC2)nc1C(F)(F)F [Example 137]
0.1 to 1 µM,< 0.1 µM,< 0.1 µM,< 0.1 µM,COC(=O)c1cnc(N2CCN(c3nnc(Cc4ccccc4)c4ccccc34)CC2)cn1 [Example 138]
1 to 10 µM,0.1 to 1 µM,< 0.1 µM,< 0.1 µM,COC(=O)c1ccc(N2CCN(c3nnc(Cc4ccccc4)c4ccccc34)CC2)nn1 [Example 139]
0.1 to 1 µM,< 0.1 µM,< 0.1 µM,< 0.1 µM,"C[C@@H]1CN(c2nnc(Cc3ccccc3)c3ccccc23)CCN1c1ccc(C#N)cn1 [Example 142, 6-[(R)-4-(4-Benzyl-phthalazin-1-yl)-2-methyl-piperazin-1-yl]-nicotinonitrile]"
0.1 to 1 µM,< 0.1 µM,< 0.1 µM,< 0.1 µM,"C[C@H]1CN(c2nnc(Cc3ccccc3)c3ccccc23)CCN1c1ccc(C#N)cn1 [Example 143, 6-[(S)-4-(4-Benzyl-phthalazin-1-yl)-2-methyl-piperazin-1-yl]-nicotinonitrile]"
0.1 to 1 µM,< 0.1 µM,< 0.1 µM,< 0.1 µM,"CCOC(=O)c1ccc(N2CCN(c3nnc(Cc4ccccc4)c4ccccc34)C[C@H]2C)nc1 [Example 144, 6-[(R)-4-(4-Benzyl-phthalazin-1-yl)-2-methyl-piperazin-1-yl]-nicotinic acid ethyl ester]"
1 to 10 µM,0.1 to 1 µM,< 0.1 µM,0.1 to 1 µM,"CCOC(=O)c1cnc(N2CCN(c3nnc(Cc4ccccc4)c4ccccc34)C[C@H]2C(=O)OC)nc1C(F)(F)F [Example 147, 2-[(S)-4-(4-Benzyl-phthalazin-1-yl)-2-methoxycarbonyl-piperazin-1-yl]-4-trifluoromethyl-pyrimidine-5-carboxylic acid ethyl ester]"
< 0.1 µM,< 0.1 µM,< 0.1 µM,< 0.1 µM,CC(C)(O)c1cnc(N2CCN(c3nnc(Cc4ccccc4)c4ccccc34)CC2)cc1C(F)(F)F [Example 148]
< 0.1 µM,< 0.1 µM,< 0.1 µM,< 0.1 µM,CC(C)(O)c1cnc(N2CCN(c3nnc(Cc4ccccc4)c4ccccc34)CC2)nc1C(F)(F)F [Example 149]
